The values below come from patent US20220024945A1, “THERAPEUTIC COMPOUNDS AND COMPOSITIONS, AND METHODS OF USE THEREOF” (Genentech, Inc., priority 2017, published 2022).

Experiment [1] addresses isolated recombinant JAK2 kinase domain (Homo sapiens, UniProt O60674). The experiment is described as follows: JAK enzyme assay (Caliper LabChip), JAK2 kinase domain. The note with it: ATP 25 μM, 0.2 nM JAK2, Morrison tight binding model.
Protocol: JAK Enzyme Assays were Carried Out as Follows:
The activity of the isolated recombinant JAK1 and JAK2 kinase domain was measured by monitoring phosphorylation of a peptide derived from JAK3 ([sequence] fluorescently labeled on the N-terminus with 5-carboxyfluorescein) using the Caliper LabChip® technology (Caliper Life Sciences, Hopkinton, Mass.). […] Reactions were incubated at 22° C. in 384-well polypropylene microtiter plates for 30 minutes and then stopped by addition of 25 μL of an EDTA containing solution (100 mM HEPES buffer (pH 7.2), 0.015% Brij-35, 150 mM EDTA), resulting in a final EDTA concentration of 50 mM. After termination of the kinase reaction, the proportion of phosphorylated product was determined as a fraction of total peptide substrate using the Caliper LabChip® 3000 according to the manufacturer's specifications.
Experiment [2] addresses isolated recombinant JAK1 kinase domain (Homo sapiens, UniProt P23458). The experiment is described as follows: JAK enzyme assay (Caliper LabChip), JAK1 kinase domain. The experiment is classed as biochemical. The note with it: ATP 25 μM; 1.5 nM JAK1; Morrison tight binding model.
Experiment [3] concerns JAK1-dependent STAT6 phosphorylation downstream of IL-13 stimulation, BEAS-2B cells. The experiment is described as follows: JAK1 pathway assay in cell lines: P-STAT6 in BEAS-2B cells + IL13. The note with it: Homo sapiens, BEAS-2B, 1 h, BEAS-2B human bronchial epithelial cells, 1 hr compound preincubation, read-out: P-STAT6 BEAS2B + IL13 IC50. The experiment is classed as cell-based. As for the experimental part:
JAK1 Pathway Assay in Cell Lines was Carried Out as Follows:
Inhibitor potency (EC50) was determined in cell-based assays designed to measure JAK1 dependent STAT phosphorylation. As noted above, inhibition of IL-4, IL-13, and IL-9 signaling by blocking the Jak/Stat signaling pathway can alleviate asthmatic symptoms in pre-clinical lung inflammation models (Mathew et al., 2001, J Exp Med 193(9): 1087-1096; Kudlacz et. al., 2008, Eur J. Pharmacol 582(1-3): 154-161).
In one assay approach, TF-1 human erythroleukemia cells obtained from the American Type Culture Collection (ATCC; Manassas, Va.) were used to measure JAK1-dependent STAT6 phosphorylation downstream of IL-13 stimulation. Prior to use in the assays, TF-1 cells were starved of GM-CSF overnight in OptiMEM medium (Life Technologies, Grand Island, N.Y.) supplemented with 0.5% charcoal/dextran stripped fetal bovine serum (FBS), 0.1 mM non-essential amino acids (NEAA), and 1 mM sodium pyruvate. The assays were run in 384-well plates in serum-free OptiMEM medium using 300,000 cells per well. In a second assay approach, BEAS-2B human bronchial epithelial cells obtained from ATCC were plated at 100,000 cells per well of a 96-well plate one day prior to the experiment. The BEAS-2B assay was run in complete growth medium (bronchial epithelial basal medium plus bulletkit; Lonza; Basel, Switzerland).
Test compounds were serially diluted 1:2 in DMSO and then diluted 1:50 in medium just before use. Diluted compounds were added to the cells, for a final DMSO concentration of 0.2%, and incubated for 30 m (for the TF-1 assay) or 1 hr (for the BEAS-2B assay) at 37° C. Then, cells were stimulated with human recombinant cytokine at their respective EC90 concentrations, as previously determined for each individual lot. Cells were stimulated with […] (R&D Systems, Minneapolis, Minn.) for 15 m/at 37° C. The TF-1 cell reactions were stopped by the direct addition of 10× lysis buffer (Cell Signaling Technologies, Danvers, Mass.), whereas the BEAS-2B cell incubations were halted by the removal of medium and addition of 1× lysis buffer. The resultant samples were frozen in the plates at −80° C. Compound mediated inhibition of STAT6 phosphorylation was measured in the cell lysates using MesoScale Discovery (MSD) technology (Gaithersburg, Md.). EC50 values were determined as the concentration of compound required for 50% inhibition of STAT phosphorylation relative to that measured for the DMSO control.

Each structure is given as a SMILES string. pIC50, pKi: −log10 of the molar value.

Sequence of isolated recombinant JAK2 kinase domain (O60674 849-1124 limits assumed): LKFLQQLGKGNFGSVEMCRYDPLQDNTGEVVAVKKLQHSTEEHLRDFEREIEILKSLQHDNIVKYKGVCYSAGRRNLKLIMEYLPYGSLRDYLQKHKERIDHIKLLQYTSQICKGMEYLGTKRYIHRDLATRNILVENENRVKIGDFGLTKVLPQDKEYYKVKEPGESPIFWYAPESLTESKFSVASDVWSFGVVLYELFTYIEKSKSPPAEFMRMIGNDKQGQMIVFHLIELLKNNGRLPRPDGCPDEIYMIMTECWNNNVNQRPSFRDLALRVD
Sequence of isolated recombinant JAK1 kinase domain (P23458 875-1153 limits assumed): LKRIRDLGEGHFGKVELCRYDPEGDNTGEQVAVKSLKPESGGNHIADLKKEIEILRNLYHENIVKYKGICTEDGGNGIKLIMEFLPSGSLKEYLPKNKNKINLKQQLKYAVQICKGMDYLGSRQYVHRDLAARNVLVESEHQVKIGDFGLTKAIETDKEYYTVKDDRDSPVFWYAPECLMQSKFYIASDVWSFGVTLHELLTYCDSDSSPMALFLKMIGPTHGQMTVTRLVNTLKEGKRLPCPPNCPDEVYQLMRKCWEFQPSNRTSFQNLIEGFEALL

The term pKi denotes −log10 of the Ki, conventionally taken in molar units. The pIC50 is the negative decadic logarithm of the IC50, by convention in mol/L. Turning to `O=C(Nc1c[nH]nc1-c1cc(SC2CCCCC2)ccc1OC(F)F)c1cnn2cccnc12` [Example 2, N-[3-[5-cyclohexylsulfanyl-2-(difluoromethoxy)phenyl]-1H-pyrazol-4-yl]pyrazolo[1,5-a]pyrimidine-3-carboxamide], the pKi in experiment [1] was 9.55; in experiment [2] it was 9.17. Also, in experiment [3], the pIC50 is 7.37.

Take `O=C(Nc1c[nH]nc1-c1cc(SCC(F)(F)F)ccc1OC(F)F)c1cnn2cccnc12` [Example 3, N-[3-[2-(difluoromethoxy)-5-(2,2,2-trifluoroethylsulfanyl)phenyl]-1H-pyrazol-4-yl]pyrazolo[1,5-a]pyrimidine-3-carboxamide]: the pKi in experiment [1] was 9.92; in experiment [2] it was 9.80. The pIC50 in experiment [3] was 8.00.

For `CC(CO)Sc1ccc(OC(F)F)c(-c2n[nH]cc2NC(=O)c2cnn3cccnc23)c1` (stereo not drawn) [Example 4, N-[3-[2-(difluoromethoxy)-5-(2-hydroxy-1-methyl-ethyl)sulfanyl-phenyl]-1H-pyrazol-4-yl]pyrazolo[1,5-a]pyrimidine-3-carboxamide], the pKi in experiment [1] is 9.82; in experiment [2], 9.64. For the same compound, the pIC50 in experiment [3] is 7.46.

As to `O=C(Nc1c[nH]nc1-c1cc(SC(F)(F)F)ccc1OC(F)F)c1cnn2cccnc12` [Example 5, N-[3-[2-(difluoromethoxy)-5-(trifluoromethylsulfanyl)phenyl]-1H-pyrazol-4-yl]pyrazolo[1,5-a]pyrimidine-3-carboxamide], the results for the pKi in experiment [1] and in experiment [2] were 9.68 and 9.30, respectively. For the same compound, the pIC50 in experiment [3] is 8.22.

`CN(C1CCN(C(=O)Cn2cc(NC(=O)c3cnn4cccnc34)c(-c3cc(SC4CCOCC4)ccc3OC(F)F)n2)CC1)C1COC1` [Example 6, N-[3-[2-(difluoromethoxy)-5-tetrahydropyran-4-ylsulfanyl-phenyl]-1-[2-[44-[methyl(oxetan-3-yl)amino]-1-piperidyl]-2-oxo-ethyl]pyrazol-4-yl]pyrazolo[1,5-a]pyrimidine-3-carboxamide]: the pKi in experiment [1] was 8.53; in experiment [2] it was 9.01. Also, the pIC50 in experiment [3] is 6.56.

Turning to `O=C(Nc1c[nH]nc1-c1cc(SC2CCCC2)ccc1OC(F)F)c1cnn2cccnc12` [Example 7, N-[3-[5-cyclopentylsulfanyl-2-(difluoromethoxy)phenyl]-1H-pyrazol-4-yl]pyrazolo[1,5-a]pyrimidine-3-carboxamide], the results for the pKi in experiment [1] and in experiment [2] were 9.43 and 9.12, respectively. Moreover, the pIC50 in experiment [3] is 7.92.

Turning to `O=C(Nc1c[nH]nc1-c1cc(SC2CCC2)ccc1OC(F)F)c1cnn2cccnc12` [Example 9, N-[3-[5-cyclobutylsulfanyl-2-(difluoromethoxy)phenyl]-1H-pyrazol-4-yl]pyrazolo[1,5-a]pyrimidine-3-carboxamide], the figures for the pKi in experiment [1] and in experiment [2] were 9.85 and 9.64, respectively. In addition, the pIC50 in experiment [3] is 8.15.

Turning to `CC(C)Sc1ccc(OC(F)F)c(-c2nn(CCO)cc2NC(=O)c2cnn3cccnc23)c1` [Example 10, N-[3-[2-(difluoromethoxy)-5-isopropylsulfanyl-phenyl]-1-(2-hydroxyethyl)pyrazol-4-yl]pyrazolo[1,5-a]pyrimidine-3-carboxamide], the pKi was 9.62 in experiment [1] and 9.24 in experiment [2]. The pIC50 in experiment [3] was 7.77.

Turning to `O=C(Nc1cn(Cc2cn(C3CCN(C4COC4)CC3)nn2)nc1-c1cc(SC2COC2)ccc1OC(F)F)c1cnn2cccnc12` [Example 17, N-[3-[2-(difluoromethoxy)-5-(oxetan-3-ylsulfanyl)phenyl]-1-[[1-[1-(oxetan-3-yl)-4-piperidyl]triazol-4-yl]methyl]pyrazol-4-yl]pyrazolo[1,5-a]pyrimidine-3-carboxamide], the pKi is 9.24 in experiment [1] and 9.09 in experiment [2]. Besides, the pIC50 in experiment [3] is 6.89.

For the compound `COC(=O)N1CCN(CC2CCN(C(=O)Cn3cc(NC(=O)c4cnn5cccnc45)c(-c4cc(SC(CF)CF)ccc4OC(F)F)n3)CC2)CC1` [Example 18], the pKi was 8.89 in experiment [1] and 9.40 in experiment [2]. Further, the pIC50 in experiment [3] is 7.48.

On to `CSc1ccc(OC(F)F)c(-c2nn(CC(C)(C)O)cc2NC(=O)c2cnn3cccnc23)c1` [Example 19, N-[3-[2-(difluoromethoxy)-5-methylsulfanyl-phenyl]-1-(2-hydroxy-2-methyl-propyl)pyrazol-4-yl]pyrazolo[1,5-a]pyrimidine-3-carboxamide], for which the pKi in experiment [1] was 9.32; in experiment [2], 9.44. For the same compound, in experiment [3], the pIC50 was 7.82.

As to `O=C(Nc1cn(CCO)nc1-c1cc(SC(CF)CF)ccc1OC(F)F)c1cnn2cccnc12` [Example 22, N-[3-[2-(difluoromethoxy)-5-[2-fluoro-1-(fluoromethyl)ethyl]sulfanyl-phenyl]-1-(2-hydroxyethyl)pyrazol-4-yl]pyrazolo[1,5-a]pyrimidine-3-carboxamide], the pKi was 9.72 in experiment [1] and 9.49 in experiment [2]. Also, the pIC50 in experiment [3] was 7.74.

Consider `CSc1ccc(OC(F)F)c(-c2nn(CC(=O)N3CCC(O)CC3)cc2NC(=O)c2cnn3cccnc23)c1` [Example 23, N-[3-[2-(difluoromethoxy)-5-methylsulfanyl-phenyl]-1-[2-(4-hydroxy-1-piperidyl)-2-oxo-ethyl]pyrazol-4-yl]pyrazolo[1,5-a]pyrimidine-3-carboxamide], for which the pKi was 9.26 in experiment [1] and 9.46 in experiment [2]. The pIC50 in experiment [3] was 7.33.

In the case of `O=C(Nc1cn(C2COC2)nc1-c1cc(SC2COC2)ccc1OC(F)F)c1cnn2cccnc12` [Example 24, N-[3-[2-(difluoromethoxy)-5-(oxetan-3-ylsulfanyl)phenyl]-1-(oxetan-3-yl)pyrazol-4-yl]pyrazolo[1,5-a]pyrimidine-3-carboxamide], the pKi in experiment [1] is 9.66; in experiment [2], 9.34. Also, the pIC50 in experiment [3] is 7.77.

On to `O=C(Nc1cn(CC(=O)N2CC=CCC2)nc1-c1cc(SC2COC2)ccc1OC(F)F)c1cnn2cccnc12` [Example 25, N-[3-[2-(difluoromethoxy)-5-(oxetan-3-ylsulfanyl)phenyl]-1-[2-(3,6-dihydro-2H-pyridin-1-yl)-2-oxo-ethyl]pyrazol-4-yl]pyrazolo[1,5-a]pyrimidine-3-carboxamide], for which the negative logarithm of the Ki (pKi) was 9.23 in experiment [1] and 9.55 in experiment [2]. In addition, the pIC50 in experiment [3] is 7.85.

For `CN(C)C(=O)Cn1cc(NC(=O)c2cnn3cccnc23)c(-c2cc(SC3COC3)ccc2OC(F)F)n1` [Example 26, N-[3-[2-(difluoromethoxy)-5-(oxetan-3-ylsulfanyl)phenyl]-1-[2-(dimethylamino)-2-oxo-ethyl]pyrazol-4-yl]pyrazolo[1,5-a]pyrimidine-3-carboxamide], the pKi in experiment [1] is 9.03; in experiment [2], 9.49. For the same compound, the pIC50 in experiment [3] is 7.47.

With `CSc1ccc(OC(F)F)c(-c2nn(CC(N)=O)cc2NC(=O)c2cnn3cccnc23)c1` [Example 27, N-[1-(2-amino-2-oxo-ethyl)-3-[2-(difluoromethoxy)-5-methylsulfanyl-phenyl]pyrazol-4-yl]pyrazolo[1,5-a]pyrimidine-3-carboxamide], the pKi is 10.00 in experiment [1] and 9.54 in experiment [2]. The pIC50 in experiment [3] is 7.92.

Turning to `O=C(Nc1cn(CC(=O)N2CCCCC2)nc1-c1cc(SC2COC2)ccc1OC(F)F)c1cnn2cccnc12` [Example 28, N-[3-[2-(difluoromethoxy)-5-(oxetan-3-ylsulfanyl)phenyl]-1-[2-oxo-2-(1-piperidyl)ethyl]pyrazol-4-yl]pyrazolo[1,5-a]pyrimidine-3-carboxamide], the pKi is 9.02 in experiment [1] and 9.39 in experiment [2]. Further, the pIC50 in experiment [3] is 7.62.

For the compound `CSc1ccc(OC(F)F)c(-c2nn(CC(=O)N3CCCCC3)cc2NC(=O)c2cnn3cccnc23)c1` [Example 29], the pKi in experiment [1] is 9.41; in experiment [2], 9.60. In addition, the pIC50 in experiment [3] is 7.85.

Regarding `O=C(Nc1c[nH]nc1-c1cc(SC(F)F)ccc1OC(F)F)c1cnn2cccnc12` [Example 30, N-[3-[2-(difluoromethoxy)-5-(difluoromethylsulfanyl)phenyl]-1H-pyrazol-4-yl]pyrazolo[1,5-a]pyrimidine-3-carboxamide], the pKi in experiment [1] is 10.05; in experiment [2] it was 9.80. In experiment [3], the pIC50 was 8.30.
